ChEMBL document CHEMBL1122976, “Potential inhibitors of S-adenosylmethionine-dependent methyltransferases. 10. Base- and amino acid modified analogues of S-aristeromycinyl-L-homocysteine” (J Med Chem, 1985)
pKi: −log10 of the molar value.

Tests used:
[1] = molecular target: T1, Phenylethanolamine N-methyltransferase (Bos taurus) (UniProt P10938); test: Inhibition of PNMT at 0.2 mM
T1 sequence (whole entry): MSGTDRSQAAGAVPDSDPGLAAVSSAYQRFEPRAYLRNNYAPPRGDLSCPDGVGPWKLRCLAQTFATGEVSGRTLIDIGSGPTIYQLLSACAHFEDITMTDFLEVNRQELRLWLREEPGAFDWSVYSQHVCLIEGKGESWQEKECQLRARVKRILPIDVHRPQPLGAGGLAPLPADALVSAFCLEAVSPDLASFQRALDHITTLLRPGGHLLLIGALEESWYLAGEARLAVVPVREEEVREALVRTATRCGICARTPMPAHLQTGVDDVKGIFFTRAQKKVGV

[2] = molecular target: T1, Phenylethanolamine N-methyltransferase (Bos taurus); test: Inhibition of PNMT at 2.0 mM
[3] = molecular target: T2, Catechol O-methyltransferase (Rattus norvegicus) (UniProt P22734); test: Inhibition of Catechol O-methyltransferase at 0.2 mM
T2 sequence (whole entry): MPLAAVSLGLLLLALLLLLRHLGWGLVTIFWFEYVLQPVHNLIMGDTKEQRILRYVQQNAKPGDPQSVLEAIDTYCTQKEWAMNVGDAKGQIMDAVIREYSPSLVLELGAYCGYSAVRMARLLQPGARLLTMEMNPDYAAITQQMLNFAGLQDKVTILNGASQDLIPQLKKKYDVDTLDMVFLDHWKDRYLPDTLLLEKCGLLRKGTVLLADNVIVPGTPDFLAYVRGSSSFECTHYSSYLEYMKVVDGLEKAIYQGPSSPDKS

[4] = molecular target: T2, Catechol O-methyltransferase (Rattus norvegicus); test: Inhibition of Catechol O-methyltransferase at 2.0 mM
[5] = molecular target: Histamine N-methyltransferase (Cavia porcellus) (UniProt Q9EST2); test: Inhibition of Histamine N-methyl-transferase at 0.2 mM
[6] = molecular target: Histamine N-methyltransferase (Cavia porcellus) (UniProt Q9EST2); test: Inhibition of Histamine N-methyl-transferase at 2.0 mM
[7] = molecular target: T3, Phenylethanolamine N-methyltransferase (Bos taurus, UniProt P10938); test: Inhibition constant was evaluated against PNMT
T3 sequence (P10938 whole entry): T1 sequence (whole entry)

Histamine N-methyltransferase (Cavia porcellus), sequence (Q9EST2 whole entry): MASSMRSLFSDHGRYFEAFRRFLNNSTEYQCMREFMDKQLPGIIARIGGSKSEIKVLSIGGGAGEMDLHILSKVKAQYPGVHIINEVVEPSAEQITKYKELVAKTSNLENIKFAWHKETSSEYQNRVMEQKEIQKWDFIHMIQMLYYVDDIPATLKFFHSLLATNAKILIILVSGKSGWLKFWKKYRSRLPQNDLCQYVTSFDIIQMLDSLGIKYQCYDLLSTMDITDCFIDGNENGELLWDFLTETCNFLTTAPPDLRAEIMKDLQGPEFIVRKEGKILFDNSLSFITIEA

CNc1ncnc2c1ncn2C1O[C@H](CSCCC(N)C(=O)O)[C@@H](O)[C@H]1O (some centres undefined) gave an inhibition [1] of 11%, an inhibition [2] of 42% and an inhibition [3] of 15%. It also gave an inhibition [4] of 55%, an inhibition [5] of 11% and an inhibition [6] of 28%.
Nc1ncnc2c1ncn2[C@@H]1O[C@H](CSCC[C@H](N)C(=O)O)[C@@H](O)[C@H]1O (stereo in doubt; 5) [S-ADENOSYLHOMOCYSTEINE] gave a pKi [7] of 4.54.
Nc1ncnc2c1ncn2[C@@H]1O[C@H](CSCC[C@H](N)C(=O)O)[C@@H](O)[C@H]1O (stereo in doubt; 9) [S-ADENOSYLHOMOCYSTEINE] was tested, and the pKi [7] was 4.21.
Nc1ncnc2c1ncn2[C@@H]1O[C@H](C[S+]([O-])CCC(N)C(=O)O)[C@@H](O)[C@H]1O (some centres undefined) showed an inhibition [1] of 10%, an inhibition [2] of 22% and an inhibition [3] of 14%. For the same molecule, the inhibition [4] was 42%, the inhibition [5] was 0% and the inhibition [6] was 9%.
